System: human gastric adenocarcinoma (AGS) cell line
Test: MTT reduction assay, cell viability / cytotoxicity in AGS cell line
Assay type: cell-based
Conditions: AGS cell line, cell viability, MTT, 48 h incubation, mean ± SD; for viability at 50 µM: Homo sapiens, read-out: % CV at 50 µM
Protocol: The cytotoxicity was assessed in different cell lines with the endpoint MTT, using previously reported procedure. The following cells were obtained from the American Type Culture Collection: human embryonic kidney epithelial cell line (HEK 293T, ATCC HBT-22™), breast cancer cell line (MDA-MB-231, ATCC HTB-26™), osteosarcoma cell line (MG-63, ATCC CRL-1427™), gastric adenocarcinoma cell line (AGS, ATTC CRL-1739TM), prostate cancer cell line (DU-145, ATTC HTB-81™), and lung carcinoma cell line (A-549, ATCC CCL-185™). All cell lines were seeded at 2 × 10^4 cells/well with exception of A-549 cell line, which was seeded at 5 × 10^3 cells/well.

SMILES	% CV at 100 µM	viability at 50 µM
O=C1CC[C@]2(c3ccccc3)OC[C@@H](Cc3c[nH]c4ccccc34)N12 [Compound 7a, (3R,7aR)-3-((1H-indol-3-yl)methyl)-7a-phenyltetrahydropyrrolo[2,1-b]oxazol-5(6H)-one]	50 ± 5%	–
O=C1CC[C@]2(c3ccc(F)cc3)OC[C@@H](Cc3c[nH]c4ccccc34)N12 [Compound 7b, (3R,7aR)-3-((1H-indol-3-yl)methyl)-7a-(4-fluorophenyl)tetrahydropyrrolo[2,1-b]oxazol-5(6H)-one]	50 ± 8%	–
O=C1CC[C@]2(c3ccc(Cl)cc3)OC[C@@H](Cc3c[nH]c4ccccc34)N12 [Compound 7c, (3R,7aR)-3-((1H-indol-3-yl)methyl)-7a-(4-chlorophenyl)tetrahydropyrrolo[2,1-b]oxazol-5(6H)-one]	6 ± 1%	11 ± 1%
O=C1CC[C@]2(c3ccc(Br)cc3)OC[C@@H](Cc3c[nH]c4ccccc34)N12 [Compound 7d, (3R,7aR)-3-((1H-indol-3-yl)methyl)-7a-(4-bromophenyl)tetrahydropyrrolo[2,1-b]oxazol-5(6H)-one]	14 ± 3%	–
Cc1ccc([C@]23CCC(=O)N2[C@H](Cc2c[nH]c4ccccc24)CO3)cc1 [Compound 7e, (3R,7aR)-3-((1H-indol-3-yl)methyl)-7a-(p-tolyl)tetrahydropyrrolo[2,1-b]oxazol-5(6H)-one]	14 ± 2%	–
COc1ccc([C@]23CCC(=O)N2[C@H](Cc2c[nH]c4ccccc24)CO3)cc1 [Compound 7f, (3R,7aR)-3-((1H-indol-3-yl)methyl)-7a-(4-methoxyphenyl)tetrahydropyrrolo[2,1-b]oxazol-5(6H)-one]	18 ± 2%	–
CS(=O)(=O)c1ccc([C@]23CCC(=O)N2[C@H](Cc2c[nH]c4ccccc24)CO3)cc1 [Compound 7g, (3R,7aR)-3-((1H-indol-3-yl)methyl)-7a-(4-(methylsulfonyl)phenyl)tetrahydropyrrolo[2,1-b]oxazol-5(6H)-one]	94 ± 12%	–
Cc1ccc([C@]23CCC(=O)N2[C@H](Cc2c[nH]c4ccccc24)CO3)cc1Cl [Compound 7h, (3R,7aR)-3-((1H-indol-3-yl)methyl)-7a-(3-chloro-4-methylphenyl)tetrahydropyrrolo[2,1-b]oxazol-5(6H)-one]	–	11 ± 2%
COc1ccc([C@]23CCC(=O)N2[C@H](Cc2c[nH]c4ccccc24)CO3)cc1F [Compound 7i, (3R,7aR)-3-((1H-indol-3-yl)methyl)-7a-(3-fluoro-4-methoxyphenyl)tetrahydropyrrolo[2,1-b]oxazol-5(6H)-one]	–	84 ± 7%
CC1CC(=O)N2C(Cc3c[nH]c4ccccc34)COC12c1ccc(Cl)cc1 (stereo not drawn) [Compound 7j]	–	8%
CCn1cc(C[C@@H]2CO[C@@]3(c4ccc(Cl)cc4)CCC(=O)N23)c2ccccc21 [Compound 7k, (3R,7aR)-7a-(4-chlorophenyl)-3-((1-ethyl-1H-indol-3-yl)methyl)tetrahydropyrrolo[2,1-b]oxazol-5(6H)-one]	–	40 ± 5%
CC(=O)n1cc(C[C@@H]2CO[C@@]3(c4ccc(Cl)cc4)CCC(=O)N23)c2ccccc21 [Compound 7l, (3R,7aR)-3-((1-acetyl-1H-indol-3-yl)methyl)-7a-(4-chlorophenyl)tetrahydropyrrolo[2,1-b]oxazol-5(6H)-one]	–	63 ± 13%
CC(C)(C)OC(=O)n1cc(C[C@@H]2CO[C@@]3(c4ccc(Cl)cc4)CCC(=O)N23)c2ccccc21 [Compound 7m, tert-butyl 3-(((3R,7aR)-7a-(4-chlorophenyl)-5-oxohexahydropyrrolo[2,1-b]oxazol-3-yl)methyl)-1H-indole-1-carboxylate]	–	61 ± 9%
O=C1CC[C@]2(c3ccc(-c4ccc(Cl)cc4)cc3)OC[C@@H](Cc3c[nH]c4ccccc34)N12 [Compound 7n, (3R,7aR)-3-((1H-indol-3-yl)methyl)-7a-(4’-chloro-[1,1’-biphenyl]-4-yl)tetrahydropyrrolo[2,1-b]oxazol-5(6H)-one]	–	65 ± 13%
O=C1CC[C@]2(c3ccc(-c4ccc(O)cc4)cc3)OC[C@@H](Cc3c[nH]c4ccccc34)N12 [Compound 7p, (3R,7aR)-3-((1H-indol-3-yl)methyl)-7a-(4’-hydroxy-[1,1’-biphenyl]-4-yl)tetrahydropyrrolo[2,1-b]oxazol-5(6H)-one]	–	56 ± 1%
O=C1CC[C@]2(c3ccc(-c4ccc(CO)cc4)cc3)OC[C@@H](Cc3c[nH]c4ccccc34)N12 [Compound 7q, (3R,7aR)-3-((1H-indol-3-yl)methyl)-7a-(4’-(hydroxymethyl)-[1,1’-biphenyl]-4-yl)tetrahydropyrrolo[2,1-b]oxazol-5(6H)-one]	–	55 ± 1%
O=C1CC[C@]2(c3ccc(-c4cccc(Cl)c4)cc3)OC[C@@H](Cc3c[nH]c4ccccc34)N12 [Compound 7r, (3R,7aR)-3-((1H-indol-3-yl)methyl)-7a-(3’-chloro-[1,1’-biphenyl]-4-yl)tetrahydropyrrolo[2,1-b]oxazol-5(6H)-one]	–	17 ± 1%
O=C1CC[C@]2(c3ccc(-c4ccncc4)cc3)OC[C@@H](Cc3c[nH]c4ccccc34)N12 [Compound 7t, (3R,7aR)-3-((1H-indol-3-yl)methyl)-7a-(4-(pyridin-4-yl)phenyl)tetrahydropyrrolo[2,1-b]oxazol-5(6H)-one]	–	75 ± 14%
O=C1CC[C@]2(c3ccc(-c4ccc5c(c4)OCCO5)cc3)OC[C@@H](Cc3c[nH]c4ccccc34)N12 [Compound 7u, (3R,7aR)-3-((1H-indol-3-yl)methyl)-7a-(4-(2,3-dihydrobenzo[b][1, 4]dioxin-6-yl)phenyl)tetrahydropyrrolo[2,1-b]oxazol-5(6H)-one]	–	67 ± 6%
O=C1CC[C@@]2(c3ccccc3)OC[C@H](Cc3c[nH]c4ccccc34)N12 [Compound 8a, (3S,7aS)-3-((1H-indol-3-yl)methyl)-7a-phenyltetrahydropyrrolo[2,1-b]oxazol-5(6H)-one]	58 ± 4%	–
O=C1CC[C@@]2(c3ccc(F)cc3)OC[C@H](Cc3c[nH]c4ccccc34)N12 [Compound 8b, (3S,7aS)-3-((1H-indol-3-yl)methyl)-7a-(4-fluorophenyl)tetrahydropyrrolo[2,1-b]oxazol-5(6H)-one]	22 ± 4%	–
O=C1CC[C@@]2(c3ccc(Cl)cc3)OC[C@H](Cc3c[nH]c4ccccc34)N12 [Compound 8c, (3S,7aS)-3-((1H-indol-3-yl)methyl)-7a-(4-chlorophenyl)tetrahydropyrrolo[2,1-b]oxazol-5(6H)-one]	11 ± 1%	–
O=C1CC[C@@]2(c3ccc(Br)cc3)OC[C@H](Cc3c[nH]c4ccccc34)N12 [Compound 8d, (3S,7aS)-3-((1H-indol-3-yl)methyl)-7a-(4-bromophenyl)tetrahydropyrrolo[2,1-b]oxazol-5(6H)-one]	25 ± 4%	–
Cc1ccc([C@@]23CCC(=O)N2[C@@H](Cc2c[nH]c4ccccc24)CO3)cc1 [Compound 8e, (3S,7aS)-3-((1H-indol-3-yl)methyl)-7a-(p-tolyl)tetrahydropyrrolo[2,1-b]oxazol-5(6H)-one]	60 ± 3%	–
COc1ccc([C@@]23CCC(=O)N2[C@@H](Cc2c[nH]c4ccccc24)CO3)cc1 [Compound 8f, (3S,7aS)-3-((1H-indol-3-yl)methyl)-7a-(4-methoxyphenyl)tetrahydropyrrolo[2,1-b]oxazol-5(6H)-one]	30 ± 4%	–
CS(=O)(=O)c1ccc([C@@]23CCC(=O)N2[C@@H](Cc2c[nH]c4ccccc24)CO3)cc1 [Compound 8g, (3S,7aS)-3-((1H-indol-3-yl)methyl)-7a-(4-(methylsulfonyl)phenyl)tetrahydropyrrolo[2,1-b]oxazol-5(6H)-one]	91 ± 11%	–
